Test results reported in patent US20240391954A1, “MC4R AGONIST PEPTIDES” (The Regents of the University of Michigan, priority 2021, published 2024).
pEC50: −log10 of the molar value. Positions of bridges follow the written chain, without caps; N, C: chain ends. Non-standard residues stand in square brackets, D forms with d. Residues, ends and D or L forms follow the SMILES beside them. d2Nal = N[C@H](Cc1ccc2ccccc2c1)C(=O)O; 2Pal = N[C@@H](Cc1ccccn1)C(=O)O; 3Pal = N[C@@H](Cc1cccnc1)C(=O)O; Cit = NC(=O)NCCC[C@H](N)C(=O)O; Nle = CCCC[C@H](N)C(=O)O; Aib = CC(C)(N)C(=O)O

How the values were obtained:
Format in all cases: cell-based
human MC3R = target: T1, human MC3R (Homo sapiens, UniProt P41968); assay: split-luciferase cAMP sensor assay, agonist mode (measurement window 1), hMC3R; conditions: for Emax: read-out: MC3R cAMP % max activation; for MC4R selectivity vs MC3R: MC4R versus MC3R; for pEC50: HEK-293 cells stably expressing hMC3R, read-out: MC3R cAMP EC50
T1 construct: expressed in transfected cells; host or cells: HEK-293 cells stably expressing the GScAMP22F split-luciferase cAMP sensor (parent reporter line from Promega); MC3R clone generated in-house, G418 selection
Procedure, shortened: (§1)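 Live stable cell lines carrying receptor plus GloSensor cAMP22f split-luciferase, loaded with 4% D-luciferin in serum-free medium (~1% serum estimated during assay). Luminescence recorded during in-line peptide addition; direct agonist effect read in window 1, with 20 μM forskolin as normalization reference. EC50 from four-parameter sigmoid fit.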

human MC1R = target: T2, human MC1R (Homo sapiens, UniProt Q01726); assay: split-luciferase cAMP sensor assay, agonist mode, hMC1R; conditions: MC4R versus MC1R
T2 construct: expressed in transfected cells; host or cells: HEK-293 cells stably expressing hMC1R and the GScAMP22F cAMP sensor
Protocol: FIG. 4A-B. (A) Pharmacological properties of exemplary MC4R agonist peptides, including those with improved efficacy in the MC4R+/− mouse (CTX-1211, CTX-1227, and CTX-1228). Concentration-response agonist curves for peptides indicated at the human MC4R (red), human MC3R (blue), human MC5R (green), and human MC1R (black) were determined by a split-luciferase cAMP sensor dynamic assay in HEK-293 cells stably expressing the hMC1R, hMC3R, hMC4R, or hMC5R and the GScAMP22F cAMP sensor. Each data point represents the mean±SEM of two experiments with three replicates each per experiment. Data is normalized to the ECmax of α-MSH. (B) Same as above, for peptides representing reduced activity at the hMC1R. Inset tables indicate EC50 values for the ligand indicated for each receptor.
The assay for the determination of the cAMP response in live cells was described previously. (Yu et al., 2020, Science 368, 428-433; incorporated by reference in its entirety). Cells were seeded at a density of 20,000 cells per well using 384-well poly-D lysine-coated, clear bottom, and black-wall assay plates (Corning Inc. Corning, NJ). Cells were allowed to attach to the plates for 18 to 24 h after which growth media was removed and 20 μl of 4% D-luciferin (Promega) in CO2 independent, serum-free medium (Thermo Fisher Scientific) was added to each well. The luciferase substrate was allowed to permeate the cells for 120 min at 37° C. Intracellular cAMP levels were measured using an FDSS 7000EX Functional Drug Screening System (Hamamatsu Photonics, Hamamatsu, Japan) in the Center for Chemical Genomics at the Life Sciences Institute. This instrument allowed the in-line addition of test-peptides and receptor agonists while simultaneously acquiring the luminescence signal from live cells. Assay read steps were set as follows: baseline acquisition of 2 min, the addition of 10 μl of varying 3× concentrations of test-peptides or vehicle followed by 11 min measurement (measurement window 1), and 10 μl addition of 4× concentration of the endogenous melanocortin agonist α-MSH (Bachem, Bubendorf, Switzerland) followed by an additional 11 min response measurement (measurement window 2). The resulting final concentration of α-MSH was close to the respective receptor EC90 dose for each receptor. Intraplate concentration response curves for α-MSH and SHU-9119 (Phoenix Pharmaceuticals, Burlingame CA) were included as reference controls. A submaximal forskolin (20 μM) concentration was also included to serve as a normalization reference to account for cell number variations and differences in assay transducer efficiency between cell lines.
With this set up it was possible to evaluate the direct effect of the test-peptides on the MC3R and MC4R cell lines during measurement window 1, while the antagonist profile in the presence of EC90 α-MSH was determined on measurement window 2. For data analysis baseline luminescence (i.e. the maximum luminescence signal from the initial 0 to 2 min window) was subtracted from the maximum luminescence obtained during measurement window 1 (2 to 13 min) and measurement window 2 (13 to 24 min) to yield the test-peptide elicited responses. EC50 or IC50 potency values were determined by non-linear regression by fitting the data to a sigmoid four-parameter variable slope model using the GraphPad Prism version 8.4 software package (San Diego CA).

human MC4R = target: T3, human MC4R (Homo sapiens, UniProt P32245); assay: split-luciferase cAMP sensor assay, agonist mode (measurement window 1), hMC4R; conditions: agonist mode; for Emax: read-out: MC4R cAMP % max activation; for pEC50: HEK-293 cells stably expressing hMC4R, read-out: MC4R cAMP EC50
T3 construct: host or cells: HEK-293 cells stably expressing the GScAMP22F split-luciferase cAMP sensor and hMC4R, G418 selection
Procedure, shortened: as §1

[1] = % maximal activation, agonist mode

T3 sequence (P32245 whole entry): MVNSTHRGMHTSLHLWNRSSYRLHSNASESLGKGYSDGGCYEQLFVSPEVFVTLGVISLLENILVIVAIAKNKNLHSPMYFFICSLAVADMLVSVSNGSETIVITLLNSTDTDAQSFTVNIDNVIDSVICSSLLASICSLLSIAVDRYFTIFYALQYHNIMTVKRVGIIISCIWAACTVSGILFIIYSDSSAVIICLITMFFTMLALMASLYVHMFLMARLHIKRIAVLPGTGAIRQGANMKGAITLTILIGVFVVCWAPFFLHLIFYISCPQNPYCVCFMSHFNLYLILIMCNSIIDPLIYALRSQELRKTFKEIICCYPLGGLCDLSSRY
T1 sequence (P41968 whole entry): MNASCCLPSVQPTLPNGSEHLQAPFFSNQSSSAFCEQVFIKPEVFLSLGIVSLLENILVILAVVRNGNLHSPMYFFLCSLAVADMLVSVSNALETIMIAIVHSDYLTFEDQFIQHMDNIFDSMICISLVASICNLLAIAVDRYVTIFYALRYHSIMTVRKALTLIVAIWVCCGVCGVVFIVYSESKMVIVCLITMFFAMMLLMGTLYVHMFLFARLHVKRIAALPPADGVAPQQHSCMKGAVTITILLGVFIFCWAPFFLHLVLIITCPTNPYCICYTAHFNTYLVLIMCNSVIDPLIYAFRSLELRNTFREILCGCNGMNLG
T2 sequence (Q01726 whole entry): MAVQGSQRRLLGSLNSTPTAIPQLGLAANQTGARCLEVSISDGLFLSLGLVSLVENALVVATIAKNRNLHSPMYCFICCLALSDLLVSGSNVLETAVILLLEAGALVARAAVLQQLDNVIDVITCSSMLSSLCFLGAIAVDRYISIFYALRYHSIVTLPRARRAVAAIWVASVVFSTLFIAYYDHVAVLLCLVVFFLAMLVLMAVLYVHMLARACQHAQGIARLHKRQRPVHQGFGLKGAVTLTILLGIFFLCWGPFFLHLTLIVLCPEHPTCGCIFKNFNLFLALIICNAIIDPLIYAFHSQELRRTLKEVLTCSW

Row | Structure (SMILES) | Emax (human MC3R; [1]) [%] | MC4R selectivity vs MC3R (human MC3R) | MC4R selectivity vs MC1R (human MC1R) | Emax (human MC4R; % maximal activation) [%] | pEC50 (human MC4R) | pEC50 (human MC3R; agonist mode) | MC3R cAMP % max activation (human MC3R; [1]) | MC4R cAMP % max activation (human MC4R; % maximal activation)
1 | CCCC[C@H](NC(=O)[C@H](CCCNC(=N)N)NC(C)=O)C(=O)N[C@H]1CSSC[C@@H](C(N)=O)NC(=O)[C@H](Cc2ccccc2)NC(=O)[C@H](CCCNC(=N)N)NC(=O)[C@@H](Cc2ccc(OC)cc2)NC(=O)[C@H](CCCNC(=N)N)NC1=O [CTX-1624, Arg-Nle-cyclo(Cys-Arg-D-Tyr(4-OMe)-Arg-Phe-Cys)] (Ac-R[Nle]CR[dY](Me)RFC-NH2; disulfide 3-8 (inferred)) | 66 | 0.47 | 0.15 | 83 | 7.92 |  |  | 
2 | C[C@H]1NC(=O)CSC[C@@H](C(N)=O)NC(=O)[C@H](Cc2c[nH]c3ccccc23)NC(=O)[C@H](CCCNC(=N)N)NC(=O)[C@@H](Cc2ccccc2)NC(=O)[C@H](Cc2c[nH]cn2)NC1=O [CTX-1202, Thioether-cyclo((D-Ala-His-D-Phe-Arg-Trp-Cys)] | 101 | 76 | 0.89 | 104 |  |  |  | 
3 | CC(=O)N[C@@H](CCCNC(=N)N)C(=O)N[C@H]1CSSC[C@@H](C(N)=O)NC(=O)[C@H](Cc2ccccc2)NC(=O)[C@H](CCCNC(=N)N)NC(=O)[C@@H](Cc2ccccc2)NC(=O)[C@H](Cc2cccnc2)NC(=O)C(C)(C)NC1=O [CTX-1605, Arg-cyclo(Cys-Aib-Pal(3′)-D-Phe-Arg-Phe-Cys)] (Ac-RC[Aib][3Pal][dF]RFC-NH2; disulfide 2-8 (inferred)) |  | >300 | 0.14 | 85 |  | < 5.00 |  | 
4 | C[C@H]1NC(=O)CSC[C@@H](C(N)=O)NC(=O)[C@H](Cc2ccccc2)NC(=O)[C@H](CCCNC(=N)N)NC(=O)[C@@H](Cc2ccccc2)NC(=O)[C@H](Cc2c[nH]cn2)NC1=O [CTX-1656, Thioether-cyclo(D-Ala-His-D-Phe-Arg-Phe-Cys)] ({CH2CO}-[dA]H[dF]RFC-NH2; thioether N-6) | 86 | 1.64 | 1 | 98 | 5.85 |  |  | 
5 | CC[C@H]1NC(=O)[C@@H](NC(=O)[C@H](CCCNC(=N)N)NC(C)=O)CSSC[C@@H](C(N)=O)NC(=O)[C@H](Cc2c[nH]c3ccccc23)NC(=O)[C@H](CCCNC(=N)N)NC(=O)[C@@H](Cc2ccccc2)NC(=O)[C@H](Cc2c[nH]cn2)NC1=O [CTX-1295, Arg-cyclo(Cys-D-Abu-His-D-Phe-Arg-Trp-Cys)] | 97 | 6.31 | 2.79 | 102 | 9.60 | 8.80 |  | 
6 | CC(=O)N[C@@H](CCCNC(=N)N)C(=O)N[C@H]1CSSC[C@@H](C(N)=O)NC(=O)[C@@H](Cc2ccc3ccccc3c2)NC(=O)[C@H](CCCNC(=N)N)NC(=O)[C@@H](Cc2ccccc2)NC(=O)[C@H](CCCNC(=N)N)NC(=O)[C@@H](C)NC1=O [CTX-1264, Arg-cyclo(Cys-D-Ala-Arg-D-Phe-Arg-D-Nal(2′)-Cys)] (Ac-RC[dA]R[dF]R[d2Nal]C-NH2; disulfide 2-8 (inferred)) | 44 | 0.29 | 0.14 | 80 | 7.89 | 8.43 |  | 
7 | CCCC[C@H](NC(=O)[C@H](CCCNC(=N)N)NC(C)=O)C(=O)N[C@H]1CSSC[C@@H](C(N)=O)NC(=O)[C@H](Cc2c[nH]c3ccccc23)NC(=O)[C@H](CCCNC(=N)N)NC(=O)[C@H](Cc2ccccc2)NC(=O)[C@H](CCCNC(N)=O)NC1=O [CTX-1609, Arg-Nle-cyclo(Cys-Cit-Phe-Arg-Trp-Cys)] (Ac-R[Nle]C[Cit]FRWC-NH2; disulfide 3-8 (inferred)) | 65 | 4.72 | 4.15 | 96 |  |  |  | 
8 | COc1ccc(C[C@H]2NC(=O)[C@H](CCCNC(N)=O)NC(=O)C(C)(C)NC(=O)[C@@H](NC(=O)[C@H](CCCNC(=N)N)NC(C)=O)CSSC[C@@H](C(N)=O)NC(=O)[C@H](Cc3ccccc3)NC(=O)[C@H](CCCNC(=N)N)NC2=O)cc1 [CTX-1299, Arg-cyclo(Cys-Aib-Cit-D-Tyr(4-OMe)-Arg-Phe-Cys)] (Ac-RC[Aib][Cit][dY](Me)RFC-NH2; disulfide 2-8) |  | >154 | 3.66 | 78 |  | < 5.00 |  | 
9 | CC(=O)N[C@@H](CCCNC(=N)N)C(=O)N[C@H]1CSSC[C@@H](C(N)=O)NC(=O)[C@@H](Cc2ccccc2)NC(=O)[C@H](CCCNC(=N)N)NC(=O)[C@@H](Cc2ccccc2)NC(=O)[C@H](CCCNC(=N)N)NC(=O)[C@@H](C)NC1=O [CTX-1257, Arg-cyclo(Cys-D-Ala-Arg-D-Phe-Arg-D-Phe-Cys)] (Ac-RC[dA]R[dF]R[dF]C-NH2; disulfide 2-8 (inferred)) |  | 0.06 | 0.02 |  | 6.16 |  | (88%) | (94%)
10 | CC(=O)N[C@H]1CSSC[C@@H](C(N)=O)NC(=O)[C@H](Cc2ccccc2)NC(=O)[C@H](CCCNC(=N)N)NC(=O)[C@@H](Cc2ccccc2)NC(=O)[C@H](CCCNC(=N)N)NC(=O)CNC1=O [CTX-1638, cyclo(Cys-Gly-Arg-D-Phe-Arg-Phe-Cys)] (Ac-CGR[dF]RFC-NH2; disulfide 1-7) | 75 | 1.66 | 1.04 | 110 |  |  |  | 
11 | N=C(N)NCCC[C@@H]1NC(=O)[C@@H](Cc2ccccc2)NC(=O)[C@H](Cc2c[nH]cn2)NC(=O)CNC(=O)CSC[C@@H](C(N)=O)NC(=O)[C@H](Cc2ccccc2)NC1=O [CTX-1653, Thioether-cyclo(Gly-His-D-Phe-Arg-Phe-Cys)] ({CH2CO}-GH[dF]RFC-NH2; thioether N-6) |  | >8 | 0.83 | 83 | 5.91 | < 5.00 |  | 
12 | CCCC[C@H](NC(=O)[C@H](CCCNC(=N)N)NC(C)=O)C(=O)N[C@H]1CSSC[C@@H](C(N)=O)NC(=O)[C@H](Cc2c[nH]c3ccccc23)NC(=O)[C@H](CCCNC(=N)N)NC(=O)[C@@H](Cc2ccccc2)NC(=O)[C@H](Cc2ccccn2)NC1=O [CTX-1619, Arg-Nle-cyclo(Cys-Pal(2′)-D-Phe-Arg-Trp-Cys)] (Ac-R[Nle]C[2Pal][dF]RWC-NH2; disulfide 3-8 (inferred)) | 84 | 13 | 86 | 99 | 8.59 |  |  | 
